Measurements from publication PMC10712727, “Safety, Tolerability, and Pharmacokinetics of Senaparib, a Novel PARP1/2 Inhibitor, in Chinese Patients With Advanced Solid Tumors: A Phase I Trial” (The Oncologist, 2023).

System: BRCA^mut+ tumors
Assay: Tumor response per RECIST v1.1 (ORR, DCR, DOR, PFS), BRCA^mut+ subgroup
Type: in vivo, human
Conditions: for Patients with reduced tumor size: BRCA^mut+ subgroup; for PFS, Median (95% CI): Kaplan-Meier
From the text: The dose-expansion period included 3 populations: dose groups in which at least one patient achieved complete response (CR) or partial response (PR) per RECIST v1.1[16] and 1 dose group higher (evaluated for safety), as well as the dose group at the maximum tolerated dose (MTD)/recommended phase II dose (RP2D). Each of these groups included those patients in the respective dose-escalation group plus a planned additional 10 patients (approximately 20 patients in the MTD/RP2D group) with BRCA^mut+ solid tumors (ovarian, breast, or prostate cancer were preferred, and ovarian cancer could be BRCA wild type). Patients received senaparib monotherapy orally QD or BID (50-mg dose only) over each 3-week cycle until disease progression or unacceptable toxicity.
Safety was assessed by recording the incidence of dose-limiting toxicities (DLTs), and the incidence, nature, severity (graded per National Cancer Institute Common Terminology Criteria for Adverse Events version 4.03 [NCI CTCAE v4.03][18]), and relatedness of treatment-emergent adverse events (TEAEs). DLTs were predefined toxicities (Supplementary Table S2) recorded over the 7 days following the single-dose administration of senaparib and during the first treatment cycle (day 1-day 21) for each dose group in the dose-escalation period only. The MTD was defined as the maximum dose at which ≤1/6 patients experienced a DLT. Senaparib PK parameters were derived from blood samples collected from patients after the single administration, and at regular intervals during the first cycle of the dose-escalation and dose-expansion periods. Plasma concentrations of senaparib were determined using high-performance liquid chromatography-tandem mass spectrometry. Tumor response was assessed every 6 weeks per RECIST v1.1,[16] recording objective response rate (ORR), disease control rate (DCR), duration of response (DOR), and progression-free survival (PFS) by dose level for all patients and for those harboring BRCA^mut+ tumors.
There was no formal sample size calculation based on statistical hypothesis testing for this study; the planned enrolment was approximately 30-60 patients across the dose-escalation and dose-expansion cohorts. The actual number in the dose-escalation cohort was adjusted based on the number of dose cohorts required for the modified Fibonacci dose-escalation design and the determined MTD. Definitions for all analysis populations (safety, DLT, PK, and efficacy [intent-to-treat, ITT]) are provided in Supplementary Table S2. No statistical tests were performed; patient demographic and baseline characteristics, safety/tolerability, PK parameters, and efficacy were evaluated descriptively. ORR and DCR and their 95% CIs were calculated for each group using the exact probability method. Kaplan-Meier statistics were used to estimate DOR and PFS, and their 95% CIs for each dose group separately. Dose linearity was explored based on the single-dose data of area under the time-concentration curve (AUC) and maximum plasma concentration (Cmax) using the power model (Y = α × dose β) for the dose range 2-80 mg on a log-transformed scale. The following criterion was used to determine whether dose proportionality was met: if the (2-sided) 90% CI for β was wholly contained within the interval (1 + log(0.5)/log(r), 1 + log(2)/log(r)), then dose proportionality was supported. Here, r was defined as the ratio of the highest to lowest dose. All data analyses were carried out using SAS EG7.1 or higher or (for PK parameters) WinNonlin 7.0 or higher.

[1] = BRCA^mut+, 26 evaluable for tumor response
[2] = BRCA^mut+, 5 mg QD, PFS evaluable n 2
[3] = BRCA^mut+, 10 mg QD, PFS evaluable n 1
[4] = BRCA^mut+, 10 mg QD, evaluable n 1
[5] = BRCA^mut+, 20 mg QD, PFS evaluable n 3
[6] = BRCA^mut+, 20 mg QD, evaluable n 2
[7] = BRCA^mut+, 60 mg QD, PFS evaluable n 4
[8] = BRCA^mut+, 60 mg QD, evaluable n 4
[9] = BRCA^mut+, 80 mg QD, DOR evaluable n 3
[10] = BRCA^mut+, 80 mg QD, PFS evaluable n 6
[11] = BRCA^mut+, 80 mg QD, evaluable n 6
[12] = BRCA^mut+, 100 mg QD, DOR evaluable n 2
[13] = BRCA^mut+, 100 mg QD, PFS evaluable n 13
[14] = BRCA^mut+, 100 mg QD, evaluable n 11
[15] = BRCA^mut+, 120 mg QD, PFS evaluable n 2
[16] = BRCA^mut+, 120 mg QD, evaluable n 2
[17] = BRCA^mut+, Total, DOR evaluable n 7
[18] = BRCA^mut+, Total, PFS evaluable n 32
[19] = BRCA^mut+, Total, evaluable n 26

## O=C(c1cc(Cn2c(=O)[nH]c(=O)c3c(F)cccc32)ccc1F)N1CCN(c2ncccn2)CC1 [Senaparib]
BRCA^mut+ patients, 95% CI, 39-NR
  Median DOR: 169 days
BRCA^mut+ patients, 95% CI, 79-464
  Median PFS: 215 days
non-ovarian (3/10)
  Patients with reduced tumor size: 30.0%
Ovarian cancer (10/16)
  Patients with reduced tumor size: 62.5%
[1]
  DCR: 73.1%
  ORR: 26.9%
BRCA^mut+, 2 mg QD, DOR evaluable n 0
  DOR: Events: 0 n (%)
BRCA^mut+, 2 mg QD, PFS evaluable n 0
  PFS: Events: 0 (0) n (%)
BRCA^mut+, 5 mg QD, DOR evaluable n 0
  DOR: Events: 0 n (%)
[2]
  PFS: Events: 2 (100) n (%)
  PFS, Median (95% CI): 254.5 (45-464) days
BRCA^mut+, 10 mg QD, DOR evaluable n 0
  DOR: Events: 0 n (%)
[3]
  PFS: Events: 1 (100) n (%)
  PFS, Median (95% CI): 49 (49-49) days
[4]
  Complete response: 0 n (%)
  DCR (complete response+partial response+stable disease): 0 n (%)
  ORR (complete response+partial response): 0 (0) n (%)
  Partial response: 0 n (%)
  Stable disease (≥42 days from cycle 1 day 1): 0 n (%)
BRCA^mut+, 20 mg QD, DOR evaluable n 1
  DOR: Events: 0 n (%)
[5]
  PFS: Events: 1 (33.3) n (%)
  PFS, Median (95% CI): – (39-NR)
[6]
  Complete response: 0 n (%)
  DCR (complete response+partial response+stable disease): 1 (50.0) n (%)
  ORR (complete response+partial response): 1 (50.0) n (%)
  Partial response: 1 (50.0) n (%)
  Stable disease (≥42 days from cycle 1 day 1): 0 n (%)
BRCA^mut+, 40 mg QD, DOR evaluable n 0
  DOR: Events: 0 n (%)
BRCA^mut+, 50 mg BID, DOR evaluable n 0
  DOR: Events: 0 n (%)
BRCA^mut+, 50 mg BID, PFS evaluable n 1
  PFS: Events: 0 (0) n (%)
BRCA^mut+, 60 mg QD, DOR evaluable n 1
  DOR: Events: 0 n (%)
[7]
  PFS: Events: 2 (50.0) n (%)
  PFS, Median (95% CI): 255 (127-NR) days
[8]
  Complete response: 0 n (%)
  DCR (complete response+partial response+stable disease): 4 (100) n (%)
  ORR (complete response+partial response): 1 (25.0) n (%)
  Partial response: 1 (25.0) n (%)
  Stable disease (≥42 days from cycle 1 day 1): 3 (75.0) n (%)
[9]
  DOR, Median (95% CI): 120 (39-169) days
  DOR: Events: 3 (100) n (%)
[10]
  PFS: Events: 5 (83.3) n (%)
  PFS, Median (95% CI): 167 (40-216) days
[11]
  Complete response: 0 n (%)
  DCR (complete response+partial response+stable disease): 5 (83.3) n (%)
  ORR (complete response+partial response): 3 (50.0) n (%)
  Partial response: 3 (50.0) n (%)
  Stable disease (≥42 days from cycle 1 day 1): 2 (33.3) n (%)
[12]
  DOR, Median (95% CI): – (169-NR)
  DOR: Events: 1 (50.0) n (%)
[13]
  PFS: Events: 5 (38.5) n (%)
  PFS, Median (95% CI): 289 (42-NR) days
[14]
  Complete response: 0 n (%)
  DCR (complete response+partial response+stable disease): 8 (72.7) n (%)
  ORR (complete response+partial response): 2 (18.2) n (%)
  Partial response: 2 (18.2) n (%)
  Stable disease (≥42 days from cycle 1 day 1): 6 (54.5) n (%)
BRCA^mut+, 120 mg QD, DOR evaluable n 0
  DOR: Events: 0 n (%)
[15]
  PFS: Events: 1 (50.0) n (%)
  PFS, Median (95% CI): – (48-NR)
[16]
  Complete response: 0 n (%)
  DCR (complete response+partial response+stable disease): 1 (50.0) n (%)
  ORR (complete response+partial response): 0 (0) n (%)
  Partial response: 0 n (%)
  Stable disease (≥42 days from cycle 1 day 1): 1 (50.0) n (%)
[17]
  DOR, Median (95% CI): 169 (39-NR) days
  DOR: Events: 4 (57.1) n (%)
[18]
  PFS: Events: 17 (53.1) n (%)
  PFS, Median (95% CI): 215 (79-464) days
[19]
  Complete response: 0 n (%)
  DCR (complete response+partial response+stable disease): 19 (73.1) n (%)
  ORR (complete response+partial response): 7 (26.9) n (%)
  Partial response: 7 (26.9) n (%)
  Stable disease (≥42 days from cycle 1 day 1): 12 (46.2) n (%)
